Results: PubChem BioAssay AID256 (DTP/NCI, 2004)
“And” between values parts separate entries of the source, which are not always exact repeats. Identical values can stand only once. Inconclusive results and toxic doses are left out. The calls were made as follows: active = survival T/C of 150% or more; inactive = T/C below 125% in these data.

System: CD2F1 mice, L1210 leukemia ip, survival T/C
Assay: NCI In Vivo Anticancer Drug Screen. Data for tumor model L1210 Leukemia (intraperitoneal) in CD2F1 (CDF1) mice
Conditions: higher = longer survival
Outline: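 Transplantable tumor in mice; compound-treated vs vehicle-treated groups. Read-out = treated/control ratio of the measured endpoint.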

[1] = endpoint: mean survival time, dose: 100.0 mg/kg/injection, schedule: Q01DX001 (ip), vehicle: saline with Tween-80
[2] = endpoint: mean survival time, dose: 200.0 mg/kg/injection, schedule: Q01DX001 (ip), vehicle: saline with Tween-80
[3] = endpoint: mean survival time, dose: 400.0 mg/kg/injection, schedule: Q01DX001 (ip), vehicle: saline with Tween-80
[4] = endpoint: mean survival time, dose: 100.0 mg/kg/injection, schedule: Q01DX009 (ip), vehicle: saline with Tween-80
[5] = endpoint: mean survival time, dose: 100.0 mg/kg/injection, schedule: Q04DX003 (ip), vehicle: saline with Tween-80
[6] = endpoint: mean survival time, dose: 400.0 mg/kg/injection, schedule: Q04DX003 (ip), vehicle: saline with Tween-80
[7] = endpoint: mean survival time, dose: 100.0 mg/kg/injection, schedule: Q01DX001 (ip), vehicle: saline
[8] = endpoint: mean survival time, dose: 100.0 mg/kg/injection, schedule: Q04DX002 (ip), vehicle: saline with Tween-80
[9] = endpoint: mean survival time, dose: 200.0 mg/kg/injection, schedule: Q04DX002 (ip), vehicle: saline with Tween-80
[10] = endpoint: mean survival time, dose: 400.0 mg/kg/injection, schedule: Q04DX002 (ip), vehicle: saline with Tween-80
[11] = endpoint: mean survival time, dose: 200.0 mg/kg/injection, schedule: Q01DX009 (ip), vehicle: saline with Tween-80
[12] = endpoint: mean survival time, dose: 400.0 mg/kg/injection, schedule: Q01DX009 (ip), vehicle: saline with Tween-80
[13] = endpoint: mean survival time, dose: 200.0 mg/kg/injection, schedule: Q01DX001 (ip), vehicle: saline
[14] = endpoint: mean survival time, dose: 400.0 mg/kg/injection, schedule: Q01DX001 (ip), vehicle: saline
[15] = endpoint: mean survival time, dose: 100.0 mg/kg/injection, schedule: Q01DX001 (ip), vehicle: acetone

Measured: T/C

CC1OC(c2cnn(-c3ccccc3)n2)C(O)C1O (configuration not stated)
inactive: endpoint: median survival time, dose: 12.5 mg/kg/injection, schedule: Q01DX005 (ip), vehicle: water 103 % of control | endpoint: median survival time, dose: 25.0 mg/kg/injection, schedule: Q01DX005 (ip), vehicle: water 102 % of control | endpoint: median survival time, dose: 50.0 mg/kg/injection, schedule: Q01DX005 (ip), vehicle: water 103 % of control | endpoint: median survival time, dose: 100.0 mg/kg/injection, schedule: Q01DX005 (ip), vehicle: water 100 % of control | endpoint: median survival time, dose: 200.0 mg/kg/injection, schedule: Q01DX005 (ip), vehicle: water 103 % of control

C1=C(c2ccccc2)NN=C(c2ccccc2)C1c1ccccc1 (configuration not stated)
inactive: endpoint: mean survival time, dose: 1.56 mg/kg/injection, schedule: Q01DX001 (ip), vehicle: saline with Tween-80 103 % of control | endpoint: mean survival time, dose: 1.56 mg/kg/injection, schedule: Q01DX009 (ip), vehicle: saline with Tween-80 98 % of control | endpoint: mean survival time, dose: 3.13 mg/kg/injection, schedule: Q01DX001 (ip), vehicle: saline with Tween-80 101 % of control | endpoint: mean survival time, dose: 3.13 mg/kg/injection, schedule: Q01DX009 (ip), vehicle: saline with Tween-80 102 % of control | endpoint: mean survival time, dose: 6.25 mg/kg/injection, schedule: Q01DX001 (ip), vehicle: saline with Tween-80 94 % of control | endpoint: mean survival time, dose: 6.25 mg/kg/injection, schedule: Q01DX009 (ip), vehicle: saline with Tween-80 98 % of control | endpoint: mean survival time, dose: 50.0 mg/kg/injection, schedule: Q01DX001 (ip), vehicle: saline with Tween-80 87 % of control

CC(=O)Cc1nc(N)nc(Nc2ccc(Cl)c(Cl)c2)n1
inactive: endpoint: mean survival time, dose: 100.0 mg/kg/injection, schedule: Q01DX009 (ip), vehicle: saline 96 % of control | endpoint: mean survival time, dose: 200.0 mg/kg/injection, schedule: Q01DX009 (ip), vehicle: saline 97 % of control | endpoint: mean survival time, dose: 400.0 mg/kg/injection, schedule: Q01DX009 (ip), vehicle: saline 111 % of control

CC(=O)OC1CC2CC1C1C=CCC21 (configuration not stated)
inactive: [1] 97 % of control | [2] 95 % of control | [3] 100 % of control

COc1csn[n+]1-c1ccc(C)cc1
inactive: endpoint: mean survival time, dose: 75.0 mg/kg/injection, schedule: Q01DX001 (ip), vehicle: saline 104 % of control

Oc1ccc(C=NCCN=Cc2ccc(O)cc2O)c(O)c1
inactive: endpoint: mean survival time, dose: 8.0 mg/kg/injection, schedule: Q01DX009 (ip), vehicle: saline with Tween-80 98 % of control | endpoint: mean survival time, dose: 12.0 mg/kg/injection, schedule: Q01DX009 (ip), vehicle: saline with Tween-80 87 % of control | endpoint: mean survival time, dose: 18.0 mg/kg/injection, schedule: Q01DX009 (ip), vehicle: saline with Tween-80 92 % of control | endpoint: mean survival time, dose: 25.0 mg/kg/injection, schedule: Q01DX009 (ip), vehicle: saline with Tween-80 114 % of control and 96 % of control | [4] 87 % of control | [5] 87 % of control | [6] 88 % of control

CCCC[N+](=O)[O-]
inactive: endpoint: mean survival time, dose: 100.0 mg/kg/injection, schedule: Q04DX003 (ip), vehicle: saline 98 % of control | endpoint: mean survival time, dose: 200.0 mg/kg/injection, schedule: Q04DX003 (ip), vehicle: saline 100 % of control | endpoint: mean survival time, dose: 400.0 mg/kg/injection, schedule: Q04DX003 (ip), vehicle: saline 102 % of control

CC1(C)N=C(N)N=C(N)N1c1cccc(OCCCC#N)c1
inactive: endpoint: mean survival time, dose: 25.0 mg/kg/injection, schedule: Q01DX001 (ip), vehicle: saline 88 % of control | endpoint: mean survival time, dose: 50.0 mg/kg/injection, schedule: Q01DX001 (ip), vehicle: saline 106 % of control | [7] 101 % of control

Clc1nnc(Nc2ccccc2)c2ccccc12
inactive: endpoint: mean survival time, dose: 100.0 mg/kg/injection, schedule: Q04DX003 (ip), vehicle: other 94 % of control | endpoint: mean survival time, dose: 200.0 mg/kg/injection, schedule: Q04DX003 (ip), vehicle: other 88 % of control | endpoint: mean survival time, dose: 400.0 mg/kg/injection, schedule: Q04DX003 (ip), vehicle: other 88 % of control

CCOC(=O)CCN(CCC(=O)OCC)Cc1ccccc1
inactive: [8] 112 % of control | [9] 100 % of control | [10] 103 % of control

CCC(CC)(C(N)=O)C(N)=O
inactive: [8] 108 % of control | [9] 100 % of control | [10] 100 % of control

CCCNC(=O)NO
inactive: endpoint: mean survival time, dose: 4.0 mg/kg/injection, schedule: Q03HX024 (ip), vehicle: other 97 % of control | endpoint: mean survival time, dose: 8.0 mg/kg/injection, schedule: Q03HX024 (ip), vehicle: other 97 % of control | endpoint: mean survival time, dose: 16.0 mg/kg/injection, schedule: Q03HX024 (ip), vehicle: other 96 % of control | endpoint: mean survival time, dose: 32.0 mg/kg/injection, schedule: Q03HX024 (ip), vehicle: other 98 % of control | endpoint: mean survival time, dose: 64.0 mg/kg/injection, schedule: Q03HX024 (ip), vehicle: other 97 % of control

CCCCCCCC(=O)Oc1ccc(N=Nc2ccc(OCC)cc2)cc1
inactive: [4] 93 % of control | [5] 95 % of control | [11] 90 % of control | endpoint: mean survival time, dose: 200.0 mg/kg/injection, schedule: Q04DX003 (ip), vehicle: saline with Tween-80 95 % of control | [12] 98 % of control | [6] 89 % of control

Oc1c(C(Nc2ccccc2)c2ccccc2)ccc2cccnc12 (configuration not stated)
inactive: [7] 97 % of control | [13] 97 % of control | [14] 100 % of control

Nc1cc2[nH]c(=O)c3ccccc3c2cc1Br
inactive: endpoint: mean survival time, dose: 100.0 mg/kg/injection, schedule: Q01DX001 (ip), vehicle: carboxymethylcellulose (CMC) 103 % of control | endpoint: mean survival time, dose: 200.0 mg/kg/injection, schedule: Q01DX001 (ip), vehicle: carboxymethylcellulose (CMC) 97 % of control | endpoint: mean survival time, dose: 400.0 mg/kg/injection, schedule: Q01DX001 (ip), vehicle: carboxymethylcellulose (CMC) 100 % of control

CCN1CCC(C(C)(C)C)CC1
inactive: [15] 102 % of control

O=c1[nH]c2ccc(Br)cc2c2ccccc12
inactive: [7] 90 % of control | [13] 94 % of control | [14] 100 % of control

Cc1cc(Oc2ccc(Cl)cc2NC(=O)Nc2ccc(Cl)c(Cl)c2)c(S(=O)(=O)O)cc1Cl
inactive: [15] 94 % of control | endpoint: mean survival time, dose: 200.0 mg/kg/injection, schedule: Q01DX001 (ip), vehicle: acetone 94 % of control | endpoint: mean survival time, dose: 400.0 mg/kg/injection, schedule: Q01DX001 (ip), vehicle: acetone 93 % of control

O=S1CC2(C1)CS(=O)C2 (configuration not stated)
inactive: [7] 103 % of control | [13] 103 % of control | [14] 100 % of control

C(#Cc1ccccc1)/C=C/C(=C\c1ccccc1)c1ccccc1
inactive: [1] 92 % of control | [2] 89 % of control | [3] 87 % of control

C/C=C/C(O)C(O)/C=C/C (configuration not stated)
inactive: [1] 94 % of control | [2] 97 % of control | [3] 97 % of control

CC[n+]1c(-c2ccccc2)c2cc(N)ccc2c2ccc(N)cc21 (tested in a mixture with another compound)
inactive: endpoint: mean survival time, dose: 5.0 mg/kg/injection, schedule: Q01DX009 (ip), vehicle: water 104 % of control | endpoint: mean survival time, dose: 10.0 mg/kg/injection, schedule: Q01DX009 (ip), vehicle: water 104 % of control | endpoint: mean survival time, dose: 20.0 mg/kg/injection, schedule: Q01DX009 (ip), vehicle: water 104 % of control | endpoint: mean survival time, dose: 40.0 mg/kg/injection, schedule: Q01DX009 (ip), vehicle: water 102 % of control | endpoint: mean survival time, dose: 80.0 mg/kg/injection, schedule: Q01DX009 (ip), vehicle: water 86 % of control

C/C(=C\C(=O)c1ccccc1)OB(F)F
inactive: [4] 98 % of control and 100 % of control | [11] 110 % of control and 100 % of control | [12] 100 % of control
